Test results from US20160120932A1, “TRANSPLANT SITE-FORMING AGENT, TRANSPLANT SITE-FORMING DEVICE, ANGIOGENIC AGENT AND ANGIOGENIC DEVICE” (Kyoto University, priority 2014, published 2016).

Experiments:
diabetic ACI rats [1] = experiment: Plasma insulin concentration of recipients after transplanting pancreatic islets; type: in vivo, rat; conditions: at 40 days and at 90 days after transplanting the pancreatic islets; casual measurements
Description: (§1) Pancreatic islets were separated from a F344 rat as a donor, and were transplanted to the diabetic ACI rats as prepared above as recipients. Specifically, the agarose rods containing SEK-1005 as prepared in the same process as described above were implanted on the right side and on the left side of the backbone of the diabetic rats, respectively, and were removed 10 days after the implantation. Thereafter, 1500 pancreatic islets separated from the F433 rat were transplanted to each of the spaces formed by removing the agarose rods, respectively (3000 pancreatic islets in total).
The error bars in FIG. 6 each indicate standard deviations (normal; n=4, diabetic; n=3, 40 days after transplantation; n=4, 90 days after transplantation; n=4). The values of the plasma insulin concentration are casual measurements.

diabetic ACI rats [2] = experiment: Blood glucose level of recipients after transplanting pancreatic islets to the site from which the agarose rod was removed; type: in vivo; conditions: SEK-1005 rods removed after 10 days, 3000 pancreatic islets from F344 rat transplanted; casual blood glucose level
Procedure: (§2) Diabetic rats were prepared by intraperionerally administering streptozocin (STZ) to ACI rats (8-week old, male). The blood glucose level of the rats were measured, and it was determined that diabetes was induced when the blood glucose level exceeded 400 mg/dL for 2 days in succession. A substrate formed of 4.5% agarose gel having a rod shape of 25 mm in length and 4 mm in diameter was impregnated with SEK-1005 (100 μg) dissolved in alcohol. After sufficiently evaporating alcohol, the agarose rod was impregnated with physiological saline. The agarose rods were implanted under the skin of the diabetic rats at two portions, on the right side and on the left side of the backbone, respectively. As a control, agarose rods that were impregnated with physiological saline without SEK-1005 were implanted under the skin of a diabetic rat, on the right side and on the left side of the backbone, respectively.
as §1, with “Thereafter, 1500 pancreatic islets separated from the F433 rat were transplanted to each of the spaces formed by removing the agarose rods, respectively (3000 pancreatic islets in total).” left out

diabetic ACI rats [3] = experiment: HE-stained and immunofluorescent-stained tissue slice of the transplant site; type: in vivo, rat; conditions: 106 days after transplantation
Description: as §1
The upper images in FIG. 8 are photographs of a HE-stained tissue slice prepared from a site at which the pancreatic islets were transplanted, obtained from a recipient with a normalized blood glucose level at 106 days after the transplantation of the pancreatic islets.
The lower image in FIG. 8 is an immunofluorescent-stained image of a tissue slice obtained at the substantially same site to the HE-stained tissue slice.

[4] = system: subcutaneous tissue of diabetic ACI rats; experiment: Amount of hemoglobin in subcutaneous tissue at contact portion with the agarose rod; type: in vivo, rat; conditions: agarose rod containing 10 μg or 100 μg of SEK-1005, implanted for 10 days
Procedure: as §2
The data shown in FIG. 3 are the measurement results of the amount of hemoglobin of a diabetic ACI rat to which an agarose rod was not implanted, a diabetic rat implanted with an agarose rod not containing SEK-1005, a diabetic rat implanted with an agarose rod containing 10 μg of SEK-1005, and a diabetic rat implanted with an agarose rod containing 100 μg of SEK-1005. The measurement was conducted after removing the agarose rod that had been implanted for 10 days. […]

[5] = system: white blood cells or bone-marrow cells; conditions: JP-A H10-259134; cited from earlier work
[6] = system: subcutaneous tissue of diabetic ACI rats; experiment: Evaluation of effect of inducing angiogenesis: observation of tissue around agarose rod implanted under the skin (gross and HE-stained slice); type: in vivo, rat
Procedure: as §2
Ten days after the implantation, the agarose rods were removed and the surrounding tissues were observed.

diabetic ACI rats [7] = experiment: Glucose tolerance test of recipients after transplantation of pancreatic islets; type: in vivo, rat; conditions: glucose intraperitoneally (60 mg/kg)
Description: as §1
In the test, changes in the blood glucose level after intraperitoneally administering glucose (60 mg/kg) were examined.
Further, glucose was administered in the same manner as the above to the recipients at 100 to 105 days after the transplantation of pancreatic islets, and the changes in the blood glucose level were examined. As a result, a trend that a degree of decrease in blood glucose level was less than the recipients at 50 to 55 days after the transplantation of the pancreatic islets was observed. […] On the other hand, the diabetic rats maintained a blood glucose level of as high as approximately 500 mg/dL. The error bars in FIG. 7 each indicate standard deviations (normal; n=4, diabetic; n=3, 40 days after transplantation; n=4, 90 days after transplantation; n=4).

diabetic rat = conditions: device containing bFGF; cited from earlier work

Compound: CC(C)CC1CCC(O)(C(C)(O)C(=O)NC2C(=O)N3NCCCC3C(=O)N(O)C(C)C(=O)N(C)C(Cc3ccccc3)C(=O)N3NCCCC3C(=O)NC(CO)C(=O)OC2C(C)C)OC1C (stereo not drawn) [SEK-1005, Ser,3-hydroxy-N-[2-hydroxy-1-oxo-2-tetrahydro-2-hydroxy-6-methyl-5-(2-methylpropyl)-2H-pyran-2-yl-propyl]-Leu-Pip(hexahydro-3-pyridazinecarbonyl)-N-hydroxy-Ala-N-methyl-Phe-Pip-rho-lactone]
- plasma insulin concentration versus diabetic rat to which pancreatic islets were not transplanted (FIG. 6) (diabetic ACI rats [1]): significantly higher
- plasma insulin concentration versus normal rat (FIG. 6) (diabetic ACI rats [1]): did not show a significant difference
- blood glucose levels of recipients (FIG. 4) (diabetic ACI rats [2]): four in six recipients were normalized over 100 days
- blood vessels in the cell clumps, HE-stained tissue slice of transplant site (FIG. 8) (diabetic ACI rats [3]): many blood vessels having a small diameter penetrated the cell clumps
- insulin-positive cells in immunofluorescent-stained tissue slice (FIG. 8) (diabetic ACI rats [3]): insulin-positive cells were observed
- pancreatic islet cell clumps in HE-stained tissue slice of transplant site (FIG. 8) (diabetic ACI rats [3]; recipient with normalized blood glucose level): many cell clumps which were considered to be pancreatic islets existed
- amount of hemoglobin in the subcutaneous tissue (FIG. 3) [4]: increased
- amount of granulation tissue [5]: increasing the amount of a granulation tissue
- development of blood vessels having a small diameter at the surrounding tissue (FIG. 1) ([6]; agarose rod containing SEK-1005 (100 μg) implanted under the skin for 10 days, compared to rod not containing SEK-1005): blood vessels having a small diameter were developed
- development of blood vessels having a small diameter in HE-stained subcutaneous tissue slice (FIG. 2) ([6]; contact portion with agarose rod containing SEK-1005, compared with rod not containing SEK-1005): blood vessels having a small diameter were developed
- changes in blood glucose level in glucose tolerance test (FIG. 7) (diabetic ACI rats [7]; 50 to 55 days after transplantation): controlled to a similar level to a normal rat
- changes in blood glucose level in glucose tolerance test (FIG. 7) (diabetic ACI rats [7]; 100 to 105 days after transplantation): controlled to a degree similar to that of a normal rat

Compound: bFGF: basic fibroblast growth factors, a substance for inducing angiogenesis
- blood glucose level after transplanting pancreatic islets at the site after removing the device (diabetic rat): normalized during a long period of time
- generation of blood vessels at the site under the skin where the device was implanted (diabetic rat): generation of blood vessels having a small diameter was observed
